For 2 compounds, Ki results are on record in BindingDB's records for doi:10.1124/jpet.105.084343 (University of Rochester, 2005).

Structures are written as SMILES.

The target in experiment [1] is Kappa-type opioid receptor (Homo sapiens, UniProt P41145).
In the next experiment the target is Mu-type opioid receptor (Homo sapiens, UniProt P35372).
Experiment [2] deals with Delta-type opioid receptor (Homo sapiens, UniProt P41143).
Sequence of Delta-type opioid receptor (P41143 whole entry): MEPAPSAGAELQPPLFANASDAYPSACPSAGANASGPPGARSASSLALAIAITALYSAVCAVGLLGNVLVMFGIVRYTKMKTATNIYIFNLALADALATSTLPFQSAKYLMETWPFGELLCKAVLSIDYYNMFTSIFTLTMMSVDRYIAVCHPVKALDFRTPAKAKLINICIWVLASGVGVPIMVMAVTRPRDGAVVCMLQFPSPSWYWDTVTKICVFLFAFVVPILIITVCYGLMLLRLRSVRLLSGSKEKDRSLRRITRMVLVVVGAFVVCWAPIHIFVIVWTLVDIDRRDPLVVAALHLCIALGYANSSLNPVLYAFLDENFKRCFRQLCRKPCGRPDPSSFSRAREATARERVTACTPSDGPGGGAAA

Sequence of Kappa-type opioid receptor (P41145 whole entry): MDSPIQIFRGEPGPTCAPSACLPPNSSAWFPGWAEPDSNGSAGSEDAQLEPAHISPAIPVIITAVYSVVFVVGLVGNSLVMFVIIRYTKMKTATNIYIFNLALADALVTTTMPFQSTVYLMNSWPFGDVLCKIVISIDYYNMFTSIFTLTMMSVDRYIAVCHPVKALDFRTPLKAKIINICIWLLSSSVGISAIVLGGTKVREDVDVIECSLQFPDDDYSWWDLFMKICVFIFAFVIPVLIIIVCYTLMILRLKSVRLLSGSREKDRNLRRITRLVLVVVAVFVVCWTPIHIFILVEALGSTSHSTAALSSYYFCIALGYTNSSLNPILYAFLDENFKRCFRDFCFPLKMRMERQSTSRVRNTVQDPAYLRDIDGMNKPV
Sequence of Mu-type opioid receptor (P35372 whole entry): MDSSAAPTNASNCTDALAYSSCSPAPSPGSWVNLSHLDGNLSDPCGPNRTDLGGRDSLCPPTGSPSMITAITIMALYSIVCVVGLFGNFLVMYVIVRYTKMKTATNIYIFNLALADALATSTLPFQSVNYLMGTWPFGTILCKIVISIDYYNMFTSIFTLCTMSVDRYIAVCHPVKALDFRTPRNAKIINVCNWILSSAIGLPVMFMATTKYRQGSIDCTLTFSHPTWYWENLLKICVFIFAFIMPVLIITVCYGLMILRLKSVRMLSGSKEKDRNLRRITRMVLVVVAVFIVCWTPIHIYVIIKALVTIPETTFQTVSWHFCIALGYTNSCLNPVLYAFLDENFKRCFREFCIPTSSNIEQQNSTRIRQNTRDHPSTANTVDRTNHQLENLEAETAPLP

One may read the Ki as the equilibrium dissociation constant of an inhibitor or competing ligand from its target. The low end stands for a stronger hold on the target, the high end for a looser hold on the target. Turning to `O=C(/C=C/C(=O)Oc1ccc2c(c1)[C@]13CCCCC1[C@H](C2)N(CC1CCC1)CC3)Oc1ccc2c(c1)[C@]13CCCCC1[C@H](C2)N(CC1CCC1)CC3` (some centres undefined) [MCL-145], the figures for the Ki (in experiment [1]; at Mu-type opioid receptor; in experiment [2]) were 78 nM, 200 nM and 9400 nM, respectively.

The compound `Oc1ccc2c(c1)[C@@]13CCCC[C@H]1C(C2)N(CC1CCC1)CC3` [MCL-101] came in with a Ki in experiment [1] of 79 nM.
